Assay results published in patent US20240299393A1, “SMALL MOLECULE DISRUPTORS OF PROTEIN INTERACTIONS IN HISTONE DEACETYLASE COMPLEXES” (Dana-Farber Cancer Institute, Inc., priority 2021, published 2024).
“Also recorded” adds a separate entry of the source.

Biological target: T1, Sin3 occupancy (Saccharomyces cerevisiae, UniProt P22579)
T1 construct: expressed in transfected cells; host or cells: S. cerevisiae JOY116 (sin3Δ) transformed with YEplac181-Sin3-(HA)3
Assay: ChIP-qPCR and ChIP-seq of Sin3-(HA)3 in yeast
Assay type: cell-based, S. cerevisiae
Settings: for Sin3 occupancy at URS-URA3 and INO1 (ChIP-qPCR) / number of genes with decreased Sin3 occupancy (ChIP-seq): 400 μM; for Sin3 occupancy at URS-URA3 and INO1 (ChIP-qPCR): 2 h; for number of genes with decreased Sin3 occupancy (ChIP-seq) / number of genes with reduced Sin3 occupancy (ChIP-seq): of 545 Sin3-occupied genes; for number of genes with decreased Sin3 occupancy (ChIP-seq): FIG. 5D; for number of genes with reduced Sin3 occupancy (ChIP-seq): FIG. 5K
Experimental: ChIP procedures in yeast were adapted from previously established protocols, with minor modifications [Sertil et al 2007, Jezek et al 2017, Barski et al 2007]. Briefly, yeast S. cerevisiae JOY116 (sin3Δ) cells transformed with the YEplac181-Sin3-(HA)3 plasmid were cultured in liquid SC-L, until OD600 nm reached ˜0.7. […] (200 rpm). After 2 h of incubation, cells were treated with 1% formaldehyde for 20 min at 4° C. for cross-linking. Then, 125 mM glycine was applied for 5 min at room temperature to quench cross-linking. Yeast cells were centrifuged (10 min at 1,000 g), and the resulting pellets were washed twice with 50 mL ice-cold phosphate-buffered saline (PBS). Yeast pellets were resuspended in 500 μL of ChIP lysis buffer (50 mM HEPES-KOH pH 7.5, 140 mM NaCl, 1 mM EDTA, 1% Triton X-100, 0.1% sodium deoxycholate, 0.1% SDS, and yeast protease inhibitors). After that, 500 μL of the yeast suspensions in lysis buffer were mixed with 500 μL of zirconia beads in a screw-top microcentrifuge tube. For cell lysis, the tubes were vortexed at maximum speed for 15 min at 4° C. Cell lysates were collected by punching a hole on the bottom of the screw-cap tube, with a sterile needle, and centrifuging the lysates into new Eppendorf tubes. Then, 300 μL of lysates were added into 1.5 mL Bioruptor Pico microtubes with caps (Diagenode, cat #C30010016), and subsequent sonication was conducted with a Bioruptor Pico sonication device, in the following conditions: 30 s/3 cycles on, and 30 s/3 cycles off, at 4° C. The sonicated lysates were cleared by 30 min centrifugation at maximum speed at 4° C. The resulting cleared lysates, with sheared chromatin, were saved, snap freezed, and stored at −80° C. until use. Next, 10 μL cleared lysates were reverse-cross linked overnight, at 65° C., in the presence of proteinase K. Phenol-chloroform extractions and EtOH precipitations were then applied to purify the sheared DNA. DNA agarose gel running and DNA concentration measurements with a NanoDrop spectrophotometer were finally conducted to assess the size and yield of the sheared DNA, respectively.
For the pull-downs, 25 μg of sheared chromatin from each sample were diluted (1:10) in ice-cold dilution buffer (1% Triton X-100, 2 mM EDTA, 20 mM Tris-HCl pH 8, 150 mM NaCl, and yeast protease inhibitors), and mixed with 10 μg ChIP-grade anti-HA (Abcam, cat #ab9110), or isotype control anti-IgG (Abcam, cat #ab171870) antibodies. Then, 50 μL of pre-washed Dynabeads Protein G for Immunoprecipitation (ThermoFisher, cat #10003D) were added to each individual sample. Chromatin immunoprecipitation was performed by incubating samples at 4° C. overnight, under gentle shaking (300 rpm). The day after, the Dynabeads were washed three times with 1 mL ice-cold wash buffer (0.1% SDS, 1% Triton X-100, 2 mM EDTA, 20 mM Tris-HCl pH 8, 150 mM NaCl), and then once with 1 mL ice-cold final wash buffer (0.1% SDS, 1% Triton X-100, 2 mM EDTA pH 8, 20 mM Tris-HCl pH 8, 500 mM NaCl), using a magnetic rack. DNA was eluted with 120 μL elution buffer (1% SDS, 100 mM NaHCO3), by incubating samples at 30° C. for 15 min. For input, 10 μL of sheared cell lysates were added to 110 μL of elution buffer. Then, 4 μL proteinase K were added to the eluted DNA or inputs, and reverse-cross linking was achieved by incubating samples overnight at 65° C. After overnight incubation, phenol-chloroform extractions and EtOH precipitations were conducted to purify ChIP-DNA. The ChIP-DNA was eluted in a total volume of 200 μL ddH2O, and then used for ChIP-qPCR or ChIP-Seq. Briefly, for ChIP-qPCR, 4 μL of eluted ChIP-DNA were mixed with 5 μL of PowerUp SYBR Green master mix (Applied Biosystems, cat #A25743), and 1 μL of the primer mix (forward+reverse; 3 μM final concentration), for a total volume of 10 μL. Two technical replicates were generated for each DNA sample from three ChIP replicates. ChIP-DNA samples were then transferred into the 384-well skirted PCR plate (Applied Biosystems, cat #4343370). […]

T1 sequence (P22579 whole entry): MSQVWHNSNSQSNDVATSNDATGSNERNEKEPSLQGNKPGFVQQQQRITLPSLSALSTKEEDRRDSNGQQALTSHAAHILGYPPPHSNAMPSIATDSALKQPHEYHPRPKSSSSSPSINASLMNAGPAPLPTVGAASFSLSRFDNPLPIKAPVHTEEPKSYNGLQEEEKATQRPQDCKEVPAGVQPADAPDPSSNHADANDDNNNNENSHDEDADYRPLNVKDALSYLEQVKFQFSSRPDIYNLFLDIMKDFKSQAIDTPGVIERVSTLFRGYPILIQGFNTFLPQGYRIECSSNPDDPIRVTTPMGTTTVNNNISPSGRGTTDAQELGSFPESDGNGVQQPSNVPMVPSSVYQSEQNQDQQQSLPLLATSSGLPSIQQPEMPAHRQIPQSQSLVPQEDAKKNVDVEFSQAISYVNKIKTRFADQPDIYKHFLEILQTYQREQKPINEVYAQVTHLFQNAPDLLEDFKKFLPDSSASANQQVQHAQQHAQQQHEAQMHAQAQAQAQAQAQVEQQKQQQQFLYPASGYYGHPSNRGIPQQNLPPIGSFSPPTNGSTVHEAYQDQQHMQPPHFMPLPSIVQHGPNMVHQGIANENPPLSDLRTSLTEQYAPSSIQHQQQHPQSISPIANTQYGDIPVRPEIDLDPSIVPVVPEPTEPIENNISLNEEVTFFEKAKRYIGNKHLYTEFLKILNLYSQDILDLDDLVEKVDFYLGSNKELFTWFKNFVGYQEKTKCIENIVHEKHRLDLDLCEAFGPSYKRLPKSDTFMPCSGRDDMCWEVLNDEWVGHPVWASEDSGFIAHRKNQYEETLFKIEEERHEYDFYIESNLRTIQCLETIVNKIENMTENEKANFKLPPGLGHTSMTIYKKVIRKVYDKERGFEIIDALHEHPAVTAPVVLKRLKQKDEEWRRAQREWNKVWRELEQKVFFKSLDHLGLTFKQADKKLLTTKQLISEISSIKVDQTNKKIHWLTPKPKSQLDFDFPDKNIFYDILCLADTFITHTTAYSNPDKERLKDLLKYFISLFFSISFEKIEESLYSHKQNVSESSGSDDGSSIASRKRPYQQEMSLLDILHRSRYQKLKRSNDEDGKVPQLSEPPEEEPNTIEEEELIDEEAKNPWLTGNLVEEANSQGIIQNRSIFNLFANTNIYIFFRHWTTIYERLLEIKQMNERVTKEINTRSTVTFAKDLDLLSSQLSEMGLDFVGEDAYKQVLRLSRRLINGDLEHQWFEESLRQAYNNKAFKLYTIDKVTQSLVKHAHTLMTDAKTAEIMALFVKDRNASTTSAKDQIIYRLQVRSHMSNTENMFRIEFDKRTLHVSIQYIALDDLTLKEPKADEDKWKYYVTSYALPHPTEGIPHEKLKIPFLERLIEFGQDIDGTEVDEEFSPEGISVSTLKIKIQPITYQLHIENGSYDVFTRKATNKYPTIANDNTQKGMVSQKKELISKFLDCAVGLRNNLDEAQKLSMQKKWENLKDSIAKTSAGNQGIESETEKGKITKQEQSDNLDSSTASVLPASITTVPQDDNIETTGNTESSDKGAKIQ

SMILES	Sin3 occupancy at URS-URA3 and INO1 (ChIP-qPCR)	number of genes with decreased Sin3 occupancy (ChIP-seq)	number of genes with reduced Sin3 occupancy (ChIP-seq)	Sin3 occupancy at INO1, IME2 and CAR1 (ChIP-Seq traces) (not at SPO3 or TRK2)
CC(/C=C/C(=O)NO)=C\[C@@H](C)C(=O)c1ccc(N(C)C)cc1 [TSA, trichostatin A]	appeared to prevent recruitment of Sin3; also recorded: decreased occupancy	142 genes	295 genes	–
CC(NC(=O)c1c(O)n2ccccc2nc1=O)c1ccccc1 (racemic) [E6]	significantly decreased; also recorded: decreased occupancy	360 genes	450 genes	reduced
